Several values for one entry are separate records, joined by “and”; a condition that tells them apart may be missing. Equal entries are not always repeated.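 The compound was tested at five concentrations on cells cultured in 96-well plates, with a 48-hour exposure period. Abbreviation: GI50, concentration required for 50% inhibition of growth. TGI: concentration producing complete growth inhibition.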
How the values were obtained:
Assay in all cases: DTP human tumour cell line panel, 48 h
SW-620 colon = system: SW-620 colon
RXF 393 renal = system: RXF 393 renal
UACC-257 melanoma = system: UACC-257 melanoma
MCF7 breast = system: MCF7 breast
HOP-62 NSCLC = system: HOP-62 NSCLC
SF-539 CNS = system: SF-539 CNS
DU-145 prostate = system: DU-145 prostate
SF-295 CNS = system: SF-295 CNS
SK-MEL-5 melanoma = system: SK-MEL-5 melanoma
IGROV1 ovarian = system: IGROV1 ovarian

| SMILES | TGI (SW-620 colon) | TGI (RXF 393 renal) | TGI (UACC-257 melanoma) | TGI (MCF7 breast) [µM] | TGI (HOP-62 NSCLC) [µM] | TGI (SF-539 CNS) | TGI (DU-145 prostate) [µM] | TGI (SF-295 CNS) [µM] | TGI (SK-MEL-5 melanoma) | TGI (IGROV1 ovarian) [µM] | GI50 (SW-620 colon) [µM] | GI50 (RXF 393 renal) [µM] | GI50 (UACC-257 melanoma) [µM] | GI50 (MCF7 breast) [µM] | GI50 (HOP-62 NSCLC) [µM] | GI50 (SF-539 CNS) [µM] | GI50 (DU-145 prostate) [µM] | GI50 (SK-MEL-5 melanoma) [µM] | GI50 (IGROV1 ovarian) [µM] |
| --- | --- | --- | --- | --- | --- | --- | --- | --- | --- | --- | --- | --- | --- | --- | --- | --- | --- | --- | --- |
| COc1ccc(/C(=N/O)c2ccccc2-c2nc3ccccc3c(=O)n2-c2ccc(S(=O)(=O)Nc3ncccn3)cc2)cc1C | > 31.6 µM | 19.8 µM | 30.5 µM | 22.2 | > 31.6 | 27.2 µM | > 31.6 | 27.9 | 25.4 µM | > 31.6 | – | – | – | – | – | – | – | – | – |
| CCOC(=O)c1[nH]cc(C)c1-c1ccn(-c2ccccc2)c1 | > 100 µM | > 100 µM | > 100 µM | > 100 | > 100 | > 100 µM | > 100 | > 100 | 63.9 µM | 55.9 | – | – | – | – | – | – | – | – | – |
| CC(=O)OC(C)c1cc2c(s1)C(=O)c1sccc1C2=O (centres undefined) | > 100 µM | 3.27 µM | 0.441 µM | 3.9 | 2.65 | 0.689 µM | 0.56 | 2.56 | 0.32 µM | 4.19 | – | – | – | – | – | – | – | – | – |
| O=C(O)[C@@H]1C[C@@H](O)CN1C(=O)OCc1ccccc1 | > 100 µM | > 100 µM | > 100 µM | > 100 | > 100 | > 100 µM | > 100 | > 100 | > 100 µM | > 100 | – | – | – | – | – | – | – | – | – |
| Cc1ccccc1OC(C)C(=O)NN1C(=O)CC(=O)N(c2ccc(Cl)cc2)C1=S (centres undefined) | > 100 µM | 78.3 µM | > 100 µM | > 100 | > 100 | > 100 µM | > 100 | > 100 | 74.4 µM | > 100 | – | – | – | – | – | – | – | – | – |
| O=C1c2ccccc2CN1c1ccc(O)cc1 | > 100 µM | > 100 µM | > 100 µM | > 100 | > 100 | > 100 µM | > 100 | > 100 | > 100 µM | > 100 | – | – | – | – | – | – | – | – | – |
| CCC1=CCC23C(=O)C=CC(=O)C2(C1)C(=O)c1cccc(OC)c1C3=O (centres undefined) | 34 µM | 21 µM | 30.1 µM | 32.8 | 42.9 | 32.9 µM | 32.2 | > 100 | 31.5 µM | 26.9 | – | – | – | – | – | – | – | – | – |
| C=C(Cl)/C(=C\Cl)CCC(Br)C(C)C (centres undefined) | 37.9 µM | > 100 µM | > 100 µM | > 100 | > 100 | > 100 µM | > 100 | > 100 | > 100 µM | > 100 | – | – | – | – | – | – | – | – | – |
| COC(=O)c1c(C)cccc1/C=C1/Cc2c(C)cccc2C1=O | > 100 µM | > 100 µM | > 100 µM | > 100 | > 100 | > 100 µM | > 100 | > 100 | > 100 µM | > 100 | – | – | – | – | – | – | – | – | – |
| O=C1NCCCc2nonc21 | > 100 µM | > 100 µM | > 100 µM | > 100 | > 100 | > 100 µM | > 100 | > 100 | > 100 µM | > 100 | – | – | – | – | – | – | – | – | – |
| COc1cc2c(cc1OCCCCOc1cc(-c3ccc(F)cc3)nc(C)n1)N=C[C@@H]1CCCN1C2=O | 4.85 µM | 3.22 µM | 1.88 µM | 15.2 | 3.43 | 2.31 µM | 50 | 2.26 | 1.44 µM | 12.2 | – | – | – | – | – | – | – | – | – |
| COc1cc(OCc2ccc3oc(=O)c(-c4ccccc4)nc3c2)cc(OC)c1OC | > 100 µM | > 100 µM | > 100 µM | > 100 | > 100 | > 100 µM | > 100 | > 100 | > 100 µM | > 100 | – | – | – | – | – | – | – | – | – |
| C[n+]1c(-c2ccccc2)cc2/c(=C\c3ccc([N+](=O)[O-])cc3)c3ccccc3n21 | 29 µM | 19.5 µM | > 60.8 µM | > 94.1 | 19.3 | 34.7 µM | 35.3 | 21.4 | > 19.7 µM | 9.53 | – | – | – | – | – | – | – | – | – |
| C=C1C(=O)OC2/C=C(\CO)C(OC(C)=O)CC(O)/C(C)=C/C(OC(=O)C(C)CC)C12 (centres undefined) | 24.4 µM and 78 µM | 40 µM and 49.8 µM | 28.9 µM and 38.5 µM | 25.8 | > 100 | 37.9 µM and 66 µM | 43.8 | > 100 | 33 µM and 30.9 µM | > 100 | – | – | – | – | – | – | – | – | – |
| Cc1ccc(S(=O)(=O)Oc2cc(N)c3c(n2)CCC3)cc1 | > 100 µM | > 100 µM | > 100 µM | > 100 | > 100 | > 100 µM | > 100 | > 100 | > 100 µM | > 100 | – | – | – | – | – | – | – | – | – |
| C=C1[C@@H](O)C[C@@]23CC[C@@H]4[C@@]5(C)CC[C@@H](OC(C)=O)C(C)(C)[C@@H]5C[C@@H](OC5OC(COC(C)=O)C(O)C(O)C5O)[C@@]4(C)C2=CC[C@H]3[C@H]1C (some centres undefined) | 21.7 µM | 18.7 µM | 26 µM | 7.77 | 25.8 | 24.5 µM | 22.6 | 14.8 | 12.3 µM | 15 | – | – | – | – | – | – | – | – | – |
| COc1ccc2c(c1)O/C(=C\c1cccc(OCC(=O)Nc3nc4c(s3)CCCC4)c1)C2=O | > 100 µM | 4.48 µM | > 100 µM | > 100 | > 55.4 | 44.1 µM | 19.7 | > 43.2 | > 100 µM | 2.17 | > 100 | 2.11 | > 100 | 12.8 | > 34 | 16.7 | 5.01 | > 71.8 | 0.692 |
| CC(C)=CCc1c2c(c3occ(-c4ccc(O)c(O)c4)c(=O)c3c1O)C=CC(C)(C)O2 | 2.36 µM | 4.14 µM | 4.89 µM | 11.4 | 4.4 | 4.14 µM | 9.32 | 12.8 | 7.72 µM | 6 | – | – | – | – | – | – | – | – | – |
| CCCCOC(C)(C)/C=C/C(O)[C@](C)(O)[C@H]1[C@H](O)C[C@@]2(C)[C@@H]3CCc4c(cc(OC5OC(CO)C(O)C(O)C5O)c(O)c4C)C3(C)C(=O)C[C@]12C (some centres undefined) | > 100 µM | > 100 µM | > 100 µM | > 100 | > 100 | > 100 µM | > 100 | > 100 | > 100 µM | > 100 | – | – | – | – | – | – | – | – | – |
| O=c1cc(/C=C/c2ccc(O)c(O)c2)oc(/C=C/c2ccc(O)c(O)c2)c1 | > 26.8 µM | 9.12 µM | 17.8 µM | 30.8 | 20.2 | 6.73 µM | 12.8 | 22.7 | 13.2 µM | 16.6 | – | – | – | – | – | – | – | – | – |
| COC(=O)NN(C(=O)OC)c1c(-c2ccccc2)nc(SC)n1N | > 100 µM | > 100 µM | > 100 µM | > 100 | > 100 | > 100 µM | > 100 | > 100 | > 100 µM | > 100 | – | – | – | – | – | – | – | – | – |
| Cc1cc(C)c2c(=O)n(CN3CC4Nc5ccccc5C4C3)sc2n1 (centres undefined) | 63.7 µM | 40.4 µM | 32.2 µM | > 100 | > 100 | 39.8 µM | 40.9 | > 100 | > 100 µM | > 100 | – | – | – | – | – | – | – | – | – |

— PubChem BioAssay (NCI)
